Measured values from ChEMBL document CHEMBL3046587, “Baseline sensitivity of Monilinia laxa from Greece to fenhexamid and analysis of fenhexamid-resistant mutants” (Crop Prot, 2013).
Converted amounts (≈) assume the structure as drawn.

Experiments:
Monilinia laxa [1] = assay: Fungitoxicity against moderately fenhexamid resistant Monilinia laxa MF-6 assessed as reduction in mycelial growth measured at 25 degC after 4 days; assay type: functional, organism-based; details: MF-6, 96 h
Monilinia laxa [2] = assay: Fungitoxicity against moderately fenhexamid resistant Monilinia laxa MF-7 assessed as reduction in mycelial growth measured at 25 degC after 4 days; assay type: functional, organism-based; details: MF-7, 96 h
Monilinia laxa [3] = assay: Fungitoxicity against moderately fenhexamid resistant Monilinia laxa MF-4 assessed as reduction in mycelial growth measured at 25 degC after 4 days; assay type: functional, organism-based; details: MF-4, 96 h
Monilinia laxa [4] = assay: Fungitoxicity against highly fenhexamid resistant Monilinia laxa MF-5 assessed as reduction in mycelial growth measured at 25 degC after 4 days; assay type: functional, organism-based; details: MF-5, 96 h
Monilinia laxa [5] = assay: Resistance factor, ratio of EC50 for Monilinia laxa MF-8 to EC50 for wild type Monilinia laxa K2; assay type: functional
Monilinia laxa [6] = assay: Resistance factor, ratio of EC50 for Monilinia laxa MF-22 to EC50 for wild type Monilinia laxa K2; assay type: functional
Monilinia laxa [7] = assay: Resistance factor, ratio of EC50 for Monilinia laxa MLK6 to EC50 for wild type Monilinia laxa K2; assay type: functional
Monilinia laxa [8] = assay: Fungitoxicity against Monilinia laxa MF-6 assessed as diameter of mycelial colony measured at 25 degC after 4 days; assay type: functional
Monilinia laxa [9] = assay: Resistance factor, ratio of EC50 for Monilinia laxa MLX2 to EC50 for wild type Monilinia laxa K2; assay type: functional
Monilinia laxa [10] = assay: Fungitoxicity against highly fenhexamid resistant Monilinia laxa MF-2 assessed as reduction in mycelial growth measured at 25 degC after 4 days; assay type: functional, organism-based; details: MF-2, 96 h
Monilinia laxa [11] = assay: Resistance factor, ratio of EC50 for Monilinia laxa MLK12 to EC50 for wild type Monilinia laxa K2; assay type: functional
Monilinia laxa [12] = assay: Resistance factor, ratio of EC50 for Monilinia laxa MF-6 to EC50 for wild type Monilinia laxa K2; assay type: functional
Monilinia laxa [13] = assay: Fungitoxicity against Monilinia laxa MF-7 assessed as diameter of mycelial colony measured at 25 degC after 4 days; assay type: functional
Monilinia laxa [14] = assay: Fungitoxicity against Monilinia laxa MF-8 assessed as diameter of mycelial colony measured at 25 degC after 4 days; assay type: functional
Monilinia laxa [15] = assay: Fungitoxicity against Monilinia laxa MF-3 assessed as diameter of mycelial colony measured at 25 degC after 4 days; assay type: functional
Monilinia laxa [16] = assay: Resistance factor, ratio of EC50 for Monilinia laxa MF-20 to EC50 for wild type Monilinia laxa K2; assay type: functional
Monilinia laxa [17] = assay: Resistance factor, ratio of EC50 for Monilinia laxa MF-2 to EC50 for wild type Monilinia laxa K2; assay type: functional
Monilinia laxa [18] = assay: Resistance factor, ratio of EC50 for Monilinia laxa MF-4 to EC50 for wild type Monilinia laxa K2; assay type: functional
Monilinia laxa [19] = assay: Fungitoxicity against wild type Monilinia laxa K2 assessed as reduction in mycelial growth measured at 25 degC after 4 days; assay type: functional, organism-based; details: K2, 96 h
Monilinia laxa [20] = assay: Fungitoxicity against moderately fenhexamid resistant Monilinia laxa MF-1 assessed as reduction in mycelial growth measured at 25 degC after 4 days; assay type: functional, organism-based; details: MF-1, 96 h
Monilinia laxa [21] = assay: Fungitoxicity against Monilinia laxa MF-1 assessed as diameter of mycelial colony measured at 25 degC after 4 days; assay type: functional
Monilinia laxa [22] = assay: Fungitoxicity against highly fenhexamid resistant Monilinia laxa MF-3 assessed as reduction in mycelial growth measured at 25 degC after 4 days; assay type: functional, organism-based; details: MF-3, 96 h
Monilinia laxa [23] = assay: Fungitoxicity against Monilinia laxa MLBO7 assessed as diameter of mycelial colony measured at 25 degC after 4 days; assay type: functional
Monilinia laxa [24] = assay: Resistance factor, ratio of EC50 for Monilinia laxa MLBO7 to EC50 for wild type Monilinia laxa K2; assay type: functional
Monilinia laxa [25] = assay: Fungitoxicity against Monilinia laxa MF-15 assessed as diameter of mycelial colony measured at 25 degC after 4 days; assay type: functional
Monilinia laxa [26] = assay: Resistance factor, ratio of EC50 for Monilinia laxa MF-15 to EC50 for wild type Monilinia laxa K2; assay type: functional
Monilinia laxa [27] = assay: Fungitoxicity against Monilinia laxa MF-2 assessed as diameter of mycelial colony measured at 25 degC after 4 days; assay type: functional
Monilinia laxa [28] = assay: Resistance factor, ratio of EC50 for Monilinia laxa MF-1 to EC50 for wild type Monilinia laxa K2; assay type: functional
Monilinia laxa [29] = assay: Fungitoxicity against Monilinia laxa MLX2 assessed as diameter of mycelial colony measured at 25 degC after 4 days; assay type: functional
Monilinia laxa [30] = assay: Fungitoxicity against moderately fenhexamid resistant Monilinia laxa MF-22 assessed as reduction in mycelial growth measured at 25 degC after 4 days; assay type: functional, organism-based; details: MF-22, 96 h
Monilinia laxa [31] = assay: Fungitoxicity against Monilinia laxa MLK12 assessed as diameter of mycelial colony measured at 25 degC after 4 days; assay type: functional
Monilinia laxa [32] = assay: Fungitoxicity against Monilinia laxa MF-4 assessed as diameter of mycelial colony measured at 25 degC after 4 days; assay type: functional
Monilinia laxa [33] = assay: Fungitoxicity against moderately fenhexamid resistant Monilinia laxa MF-8 assessed as reduction in mycelial growth measured at 25 degC after 4 days; assay type: functional, organism-based; details: MF-8, 96 h
Monilinia laxa [34] = assay: Resistance factor, ratio of EC50 for Monilinia laxa MF-7 to EC50 for wild type Monilinia laxa K2; assay type: functional
Monilinia laxa [35] = assay: Resistance factor, ratio of EC50 for Monilinia laxa MLC2 to EC50 for wild type Monilinia laxa K2; assay type: functional
Monilinia laxa [36] = assay: Resistance factor, ratio of EC50 for Monilinia laxa MF-3 to EC50 for wild type Monilinia laxa K2; assay type: functional
Monilinia laxa [37] = assay: Fungitoxicity against Monilinia laxa MLC2 assessed as diameter of mycelial colony measured at 25 degC after 4 days; assay type: functional
Monilinia laxa [38] = assay: Fungitoxicity against Monilinia laxa MLP2 assessed as diameter of mycelial colony measured at 25 degC after 4 days; assay type: functional
Monilinia laxa [39] = assay: Fungitoxicity against Monilinia laxa K2 assessed as diameter of mycelial colony measured at 25 degC after 4 days; assay type: functional
Monilinia laxa [40] = assay: Resistance factor, ratio of EC50 for Monilinia laxa MF-5 to EC50 for wild type Monilinia laxa K2; assay type: functional
Monilinia laxa [41] = assay: Resistance factor, ratio of EC50 for Monilinia laxa MLP2 to EC50 for wild type Monilinia laxa K2; assay type: functional
Monilinia laxa [42] = assay: Resistance factor, ratio of EC50 for Monilinia laxa MF-19 to EC50 for wild type Monilinia laxa K2; assay type: functional
Monilinia laxa [43] = assay: Fungitoxicity against Monilinia laxa MF-22 assessed as diameter of mycelial colony measured at 25 degC after 4 days; assay type: functional
Monilinia laxa [44] = assay: Fungitoxicity against Monilinia laxa MF-19 assessed as diameter of mycelial colony measured at 25 degC after 4 days; assay type: functional
Monilinia laxa [45] = assay: Fungitoxicity against Monilinia laxa MLK6 assessed as diameter of mycelial colony measured at 25 degC after 4 days; assay type: functional
Monilinia laxa [46] = assay: Fungitoxicity against Monilinia laxa MF-20 assessed as diameter of mycelial colony measured at 25 degC after 4 days; assay type: functional
Monilinia laxa [47] = assay: Fungitoxicity against Monilinia laxa MF-5 assessed as diameter of mycelial colony measured at 25 degC after 4 days; assay type: functional

## COC(=O)Nc1nc2ccccc2[nH]1 [CARBENDAZIM]
Monilinia laxa [1]
  EC50: 0.2 µg/mL (≈ 1.05 µM)
Monilinia laxa [2]
  EC50: 0.3 µg/mL (≈ 1.57 µM)
Monilinia laxa [3]
  EC50: 0.2 µg/mL (≈ 1.05 µM)
Monilinia laxa [4]
  EC50: 0.5 µg/mL (≈ 2.62 µM)

## CC1(C(=O)Nc2ccc(O)c(Cl)c2Cl)CCCCC1 [FENHEXAMID]
Monilinia laxa [5]
  Ratio EC50: 58
Monilinia laxa [6]
  Ratio EC50: 37
Monilinia laxa [7]
  Ratio EC50: 1.2
Monilinia laxa [8]
  Activity: 56 mm
Monilinia laxa [9]
  Ratio EC50: 1.1
Monilinia laxa [10]
  EC50: 11.1 µg/mL (≈ 36.7 µM)
Monilinia laxa [11]
  Ratio EC50: 2.2
Monilinia laxa [12]
  Ratio EC50: 58
Monilinia laxa [13]
  Activity: 55 mm
Monilinia laxa [1]
  EC50: 5.8 µg/mL (≈ 19.2 µM)
Monilinia laxa [14]
  Activity: 58 mm
Monilinia laxa [15]
  Activity: 60 mm
Monilinia laxa [16]
  Ratio EC50: 34
Monilinia laxa [17]
  Ratio EC50: 111
Monilinia laxa [18]
  Ratio EC50: 40
Monilinia laxa [19]
  EC50: 0.1 µg/mL (≈ 0.331 µM)
Monilinia laxa [20]
  EC50: 2.2 µg/mL (≈ 7.28 µM)
Monilinia laxa [21]
  Activity: 50 mm
Monilinia laxa [22]
  EC50: 7.4 µg/mL (≈ 24.5 µM)
Monilinia laxa [23]
  Activity: 60 mm
Monilinia laxa [24]
  Ratio EC50: 0.4
Monilinia laxa [25]
  Activity: 56 mm
Monilinia laxa [26]
  Ratio EC50: 31
Monilinia laxa [2]
  EC50: 2.3 µg/mL (≈ 7.61 µM)
Monilinia laxa [27]
  Activity: 54 mm
Monilinia laxa [28]
  Ratio EC50: 23
Monilinia laxa [29]
  Activity: 59 mm
Monilinia laxa [30]
  EC50: 3.7 µg/mL (≈ 12.2 µM)
Monilinia laxa [31]
  Activity: 55 mm
Monilinia laxa [3]
  EC50: 4 µg/mL (≈ 13.2 µM)
Monilinia laxa [32]
  Activity: 57 mm
Monilinia laxa [33]
  EC50: 5.8 µg/mL (≈ 19.2 µM)
Monilinia laxa [34]
  Ratio EC50: 22
Monilinia laxa [35]
  Ratio EC50: 3.7
Monilinia laxa [36]
  Ratio EC50: 75
Monilinia laxa [37]
  Activity: 49 mm
Monilinia laxa [38]
  Activity: 60 mm
Monilinia laxa [39]
  Activity: 57 mm
Monilinia laxa [40]
  Ratio EC50: 70
Monilinia laxa [41]
  Ratio EC50: 0.3
Monilinia laxa [42]
  Ratio EC50: 43
Monilinia laxa [43]
  Activity: 56 mm
Monilinia laxa [44]
  Activity: 55 mm
Monilinia laxa [45]
  Activity: 52 mm
Monilinia laxa [4]
  EC50: 6.9 µg/mL (≈ 22.8 µM)
Monilinia laxa [46]
  Activity: 55 mm
Monilinia laxa [47]
  Activity: 57 mm

## CC(Cc1ccc(C(C)(C)C)cc1)CN1C[C@@H](C)O[C@@H](C)C1 (stereo partly specified) [FENPROPIMORPH]
Monilinia laxa [10]
  EC50: 0.18 µg/mL (≈ 0.593 µM)
Monilinia laxa [1]
  EC50: 1 µg/mL (≈ 3.3 µM)
Monilinia laxa [19]
  EC50: 0.14 µg/mL (≈ 0.461 µM)
Monilinia laxa [20]
  EC50: 1 µg/mL (≈ 3.3 µM)
Monilinia laxa [22]
  EC50: 0.11 µg/mL (≈ 0.362 µM)
Monilinia laxa [2]
  EC50: 0.1 µg/mL (≈ 0.33 µM)
Monilinia laxa [30]
  EC50: 0.5 µg/mL (≈ 1.65 µM)
Monilinia laxa [3]
  EC50: 0.12 µg/mL (≈ 0.395 µM)
Monilinia laxa [33]
  EC50: 0.3 µg/mL (≈ 0.989 µM)
Monilinia laxa [4]
  EC50: 0.15 µg/mL (≈ 0.494 µM)

## N#Cc1c[nH]cc1-c1cccc2c1OC(F)(F)O2 [FLUDIOXONIL]
Monilinia laxa [10]
  EC50: 0.03 µg/mL (≈ 0.121 µM)
Monilinia laxa [1]
  EC50: 0.02 µg/mL (≈ 0.0806 µM)
Monilinia laxa [19]
  EC50: 0.01 µg/mL (≈ 0.0403 µM)
Monilinia laxa [20]
  EC50: 0.02 µg/mL (≈ 0.0806 µM)
Monilinia laxa [22]
  EC50: 0.01 µg/mL (≈ 0.0403 µM)
Monilinia laxa [2]
  EC50: 0.01 µg/mL (≈ 0.0403 µM)
Monilinia laxa [30]
  EC50: 0.02 µg/mL (≈ 0.0806 µM)
Monilinia laxa [3]
  EC50: 0.03 µg/mL (≈ 0.121 µM)
Monilinia laxa [33]
  EC50: 0.05 µg/mL (≈ 0.201 µM)
Monilinia laxa [4]
  EC50: 0.01 µg/mL (≈ 0.0403 µM)

## C[Si](Cn1cncn1)(c1ccc(F)cc1)c1ccc(F)cc1 [FLUSILAZOLE]
Monilinia laxa [10]
  EC50: 0.1 µg/mL (≈ 0.317 µM)
Monilinia laxa [1]
  EC50: 0.3 µg/mL (≈ 0.951 µM)
Monilinia laxa [19]
  EC50: 0.1 µg/mL (≈ 0.317 µM)
Monilinia laxa [20]
  EC50: 0.2 µg/mL (≈ 0.634 µM)
Monilinia laxa [22]
  EC50: 0.1 µg/mL (≈ 0.317 µM)
Monilinia laxa [2]
  EC50: 0.2 µg/mL (≈ 0.634 µM)
Monilinia laxa [30]
  EC50: 0.4 µg/mL (≈ 1.27 µM)
Monilinia laxa [3]
  EC50: 0.1 µg/mL (≈ 0.317 µM)
Monilinia laxa [33]
  EC50: 0.2 µg/mL (≈ 0.634 µM)
Monilinia laxa [4]
  EC50: 0.1 µg/mL (≈ 0.317 µM)
